Test system: Mitochondria-located protein genes
Experiment: DNA chip mRNA expression in yeast, mitochondria-located protein genes (Table 2)
Type: cell-based, Saccharomyces cerevisiae S288C
Details: cells incubated two hours with the chemical substance
Method in brief: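 Chemical exposure: 2 h, log-phase S. cerevisiae S288C, YPD, 25° C., dose set to inhibit growth without death. Profiling: mRNA labeled by reverse transcription with Cy3- or Cy5-dUTP, hybridized to whole-genome array. Output: fluorescence ratio against untreated culture.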

## [Cl][Pb][Cl] [(4), PbCl2]
Yeast gene YAL039C
  The level of expressed mRNA in the presence of chemical substance/The level of expressed mRNA in the absence of chemical substance: 1.0
Yeast gene YBL022C
  The level of expressed mRNA in the presence of chemical substance/The level of expressed mRNA in the absence of chemical substance: 0.7
Yeast gene YBL030C
  The level of expressed mRNA in the presence of chemical substance/The level of expressed mRNA in the absence of chemical substance: 0.9
Yeast gene YBL038W
  The level of expressed mRNA in the presence of chemical substance/The level of expressed mRNA in the absence of chemical substance: 1.8
Yeast gene YBL099W
  The level of expressed mRNA in the presence of chemical substance/The level of expressed mRNA in the absence of chemical substance: 1.4
Yeast gene YBR003W
  The level of expressed mRNA in the presence of chemical substance/The level of expressed mRNA in the absence of chemical substance: 1.9
Yeast gene YBR044C
  The level of expressed mRNA in the presence of chemical substance/The level of expressed mRNA in the absence of chemical substance: 1.9
Yeast gene YBR091C
  The level of expressed mRNA in the presence of chemical substance/The level of expressed mRNA in the absence of chemical substance: 3.0
Yeast gene YBR122C
  The level of expressed mRNA in the presence of chemical substance/The level of expressed mRNA in the absence of chemical substance: 1.1
Yeast gene YBR185C
  The level of expressed mRNA in the presence of chemical substance/The level of expressed mRNA in the absence of chemical substance: 2.0
Yeast gene YBR221C
  The level of expressed mRNA in the presence of chemical substance/The level of expressed mRNA in the absence of chemical substance: 1.5
Yeast gene YBR251W
  The level of expressed mRNA in the presence of chemical substance/The level of expressed mRNA in the absence of chemical substance: 1.2
Yeast gene YBR282W
  The level of expressed mRNA in the presence of chemical substance/The level of expressed mRNA in the absence of chemical substance: 2.3
Yeast gene YCL057W
  The level of expressed mRNA in the presence of chemical substance/The level of expressed mRNA in the absence of chemical substance: 0.5
Yeast gene YCR046C
  The level of expressed mRNA in the presence of chemical substance/The level of expressed mRNA in the absence of chemical substance: 1.6
Yeast gene YCR083W
  The level of expressed mRNA in the presence of chemical substance/The level of expressed mRNA in the absence of chemical substance: 1.8
Yeast gene YDL067C
  The level of expressed mRNA in the presence of chemical substance/The level of expressed mRNA in the absence of chemical substance: 1.3
Yeast gene YDL181W
  The level of expressed mRNA in the presence of chemical substance/The level of expressed mRNA in the absence of chemical substance: 1.8
Yeast gene YDL198C
  The level of expressed mRNA in the presence of chemical substance/The level of expressed mRNA in the absence of chemical substance: 1.4
Yeast gene YDR079W
  The level of expressed mRNA in the presence of chemical substance/The level of expressed mRNA in the absence of chemical substance: 1.1
Yeast gene YDR178W
  The level of expressed mRNA in the presence of chemical substance/The level of expressed mRNA in the absence of chemical substance: 2.2
Yeast gene YDR231C
  The level of expressed mRNA in the presence of chemical substance/The level of expressed mRNA in the absence of chemical substance: 1.5
Yeast gene YDR258C
  The level of expressed mRNA in the presence of chemical substance/The level of expressed mRNA in the absence of chemical substance: 1.4
Yeast gene YDR298C
  The level of expressed mRNA in the presence of chemical substance/The level of expressed mRNA in the absence of chemical substance: 1.3
Yeast gene YDR347W
  The level of expressed mRNA in the presence of chemical substance/The level of expressed mRNA in the absence of chemical substance: 3.5
Yeast gene YDR377W
  The level of expressed mRNA in the presence of chemical substance/The level of expressed mRNA in the absence of chemical substance: 1.4
Yeast gene YDR529C
  The level of expressed mRNA in the presence of chemical substance/The level of expressed mRNA in the absence of chemical substance: 3.2
Yeast gene YEL024W
  The level of expressed mRNA in the presence of chemical substance/The level of expressed mRNA in the absence of chemical substance: 1.1
Yeast gene YEL039C
  The level of expressed mRNA in the presence of chemical substance/The level of expressed mRNA in the absence of chemical substance: 5.1
Yeast gene YER178W
  The level of expressed mRNA in the presence of chemical substance/The level of expressed mRNA in the absence of chemical substance: 1.0
Yeast gene YFL016C
  The level of expressed mRNA in the presence of chemical substance/The level of expressed mRNA in the absence of chemical substance: 0.9
Yeast gene YGL018C
  The level of expressed mRNA in the presence of chemical substance/The level of expressed mRNA in the absence of chemical substance: 3.0
Yeast gene YGL187C
  The level of expressed mRNA in the presence of chemical substance/The level of expressed mRNA in the absence of chemical substance: 1.8
Yeast gene YGL191W
  The level of expressed mRNA in the presence of chemical substance/The level of expressed mRNA in the absence of chemical substance: 1.8
Yeast gene YGR008C
  The level of expressed mRNA in the presence of chemical substance/The level of expressed mRNA in the absence of chemical substance: 3.2
Yeast gene YGR028W
  The level of expressed mRNA in the presence of chemical substance/The level of expressed mRNA in the absence of chemical substance: 1.8
Yeast gene YGR062C
  The level of expressed mRNA in the presence of chemical substance/The level of expressed mRNA in the absence of chemical substance: 1.4
Yeast gene YGR076C
  The level of expressed mRNA in the presence of chemical substance/The level of expressed mRNA in the absence of chemical substance: 2.3
Yeast gene YGR082W
  The level of expressed mRNA in the presence of chemical substance/The level of expressed mRNA in the absence of chemical substance: 1.0
Yeast gene YGR174C
  The level of expressed mRNA in the presence of chemical substance/The level of expressed mRNA in the absence of chemical substance: 2.4
Yeast gene YGR244C
  The level of expressed mRNA in the presence of chemical substance/The level of expressed mRNA in the absence of chemical substance: 1.6
Yeast gene YHR008C
  The level of expressed mRNA in the presence of chemical substance/The level of expressed mRNA in the absence of chemical substance: 1.8
Yeast gene YIL155C
  The level of expressed mRNA in the presence of chemical substance/The level of expressed mRNA in the absence of chemical substance: 3.7
Yeast gene YJL096W
  The level of expressed mRNA in the presence of chemical substance/The level of expressed mRNA in the absence of chemical substance: 1.3
Yeast gene YJL102W
  The level of expressed mRNA in the presence of chemical substance/The level of expressed mRNA in the absence of chemical substance: 0.8
Yeast gene YJL133W
  The level of expressed mRNA in the presence of chemical substance/The level of expressed mRNA in the absence of chemical substance: 0.9
Yeast gene YJL166W
  The level of expressed mRNA in the presence of chemical substance/The level of expressed mRNA in the absence of chemical substance: 1.3
Yeast gene YJL180C
  The level of expressed mRNA in the presence of chemical substance/The level of expressed mRNA in the absence of chemical substance: 1.3
Yeast gene YJR077C
  The level of expressed mRNA in the presence of chemical substance/The level of expressed mRNA in the absence of chemical substance: 1.6
Yeast gene YJR121W
  The level of expressed mRNA in the presence of chemical substance/The level of expressed mRNA in the absence of chemical substance: 1.0

Source: patent publication US8192962B2, “Processes for detecting toxic substances” (Daikin Industries, Ltd., priority 2001, dated 2012)
